Measured values published in patent US20260183297A1, “SELECTION OF PATIENTS FOR THE TREATMENT OF FADS1-MEDIATED DISEASES OR DISORDERS USING FADS-1 INHIBITORS” (AMGEN INC., priority 2022, published 2026).
“Also recorded” adds a separate entry of the source.

What was measured:
Format in all cases: in vivo, mouse
[1] = Plasma lipid, glucose, insulin and metabolic profile measurements in DIO mice; settings: for Alanine Aminotransferase / Cholesterol / HDL-Cholesterol / Insulin / LDL-Cholesterol / Non-esterified fatty acids / Triglycerides: DIO mice plasma; for Alanine Aminotransferase / Cholesterol / HDL-Cholesterol / Insulin / LDL-Cholesterol / Non-esterified fatty acids / Triglycerides / C-reactive Protein / Glucose / Serum Amyloid A: mean ± SD
Method: (§1) Body weight was measured daily and used for dosing calculations. A 4-hour fasted retro-orbital blood sample was collected at baseline and day 46 and used for insulin, cholesterol, and triglyceride analysis. A 3-day average food consumption was measured on days 39-41. All animals received 0.1 ml of 2 mM ^13C5-DGLA by IP injection 23.5 hours after the last PO gavage with the different treatment to allow for 30 minutes of exposure prior to necropsy to determine the residual in vivo FADS1 activity.
Mice were bled consciously from the retro-orbital sinus, and blood was collected into EDTA plasma tubes. Plasma lipids were measured using the Olympus AU400e Chemistry Analyzer (Olympus America, Center Valley, PA). Plasma insulin was measured using the ALPCO mouse high range insulin ELISA (Alpco, Salem, NH). Blood glucose was measured using an AlphaTRAK blood glucometer (Zoetis, Parsippany, NJ).

[2] = Indirect calorimetry studies (CLAMS); settings: DIO mice, 30 mg/kg
Method: Twenty-four Fads1 KO and 24 WT mice entered the Comprehensive Laboratory Animal Monitoring System (CLAMS; Columbus Instruments, Columbus, Ohio—Oxymax Model 2018, 0233-004M, Oxymax for Windows v5.53 software, Hardware configuration 190395) before starting the HFD feeding phase, and again at 6 and 12 weeks on HFD. […] Body weight was measured daily, and food consumption was measured biweekly. Animals reentered the CLAMS on days 17-21 and on days 38-42. The volume of oxygen consumption (VO2), carbon dioxide production (VCO2), RER, and energy expenditure (HEAT) were measured during that period.

[3] = Chronic FADS1 inhibition study in DIO mice (body weight, food intake); settings: for lower body weight relative to vehicle-treated mice: 54 days
Method: as §1

[4] = Liver triglyceride measurement; settings: DIO mice, 8 weeks of 10 or 30 mg/kg
Method: Liver total lipids were homogenized and extracted using chloroform methanol solution at a ratio of 2:1. Extracted lipids were dried under nitrogen gas and suspended in 90% isopropanol, 10% Triton X-100 solution. Liver triglyceride levels in mg/g tissue were determined using total triglyceride measurement kits from Wako Diagnostics (Richmond, VA) and Sigma-Aldrich (Burlington, MA).

[5] = Plasma PUFA measurement (LC-MS/MS); settings: for FADS1 activity 20:4n-6/20:3n-6 / FADS2 activity 18:3n-6/18:2n-6: DIO mice plasma ratio; for FADS1 activity 20:4n-6/20:3n-6 / FADS2 activity 18:3n-6/18:2n-6 / Adrenic acid 22:4 n-6 / Alpha-Linolenic acid 18:3 n-3 / Arachidonic acid 20:4 n-6 / Dihomo-gamma-Linolenic acid 20:3 n-6 / Docosahexaenoic acid 22:6 n-3 / Eicosapentaenoic acid 20:5 n-3 / Eicosatetraenoic acid 20:4 n-3 / Gamma-Linoleic acid 18:3 n-6 / Linoleic acid 18:2 n-6: mean ± SD; for Adrenic acid 22:4 n-6 / Alpha-Linolenic acid 18:3 n-3 / Arachidonic acid 20:4 n-6 / Dihomo-gamma-Linolenic acid 20:3 n-6 / Docosahexaenoic acid 22:6 n-3 / Eicosapentaenoic acid 20:5 n-3 / Eicosatetraenoic acid 20:4 n-3 / Gamma-Linoleic acid 18:3 n-6 / Linoleic acid 18:2 n-6: DIO mice plasma; for Adrenic acid AdA 22:4 n-6 / Arachidonic acid AA 20:4 n-6 / Decosahexaenoic acid DHA 22:6 n-3 / Dihomo-γ-Linolenic acid DGLA 20:3 n-6 / Eicosapentaenoic acid EPA 20:5 n-3 / Eicosatetraenoic acid ETA 20:4 n-3 / Linoleic acid LA 18:2 n-6 / α-Linolenic acid ALA 18:3 n-3 / γ-Linoleic acid GLA 18:3 n-6: plasma of Compound A-treated mice; for FADS1 activity AA/DGLA 20:4n-6/20:3n-6 / FADS2 activity GLA/LA 18:3n-6/18:2n-6: plasma ratio, Compound A-treated mice
Method: Ten microliter of plasma or PUFA standards diluted in surrogate matrix (60 g/l bovine serum albumin in Dulbecco's phosphate-buffered saline [DPBS]) were mixed with 10 μl of ALA-d14 as the internal stand in a 96-well plate. 100 μl of 2N NaOH was added to the mixture for subsequent saponification at 65° C. for 1 hour. The mixture was then acidified with 50 μl of formic acid followed by two consecutive 500 μl hexane extractions. The organic extracts from the two extractions were combined and the solvent was evaporated under nitrogen gas. […] The PUFA peak areas were quantified by using the Analyst software (SCIEX, Framingham, MA).

[6] = DIO mice, 10 mg kg^−1, 46 or 54 days
[7] = DIO mice, 30 mg kg^−1, 46 or 54 days
[8] = DIO mice, 10 and 30 mg/kg daily oral

Alanine Aminotransferase ([1]; 10 mg kg^−1, 46 or 54 days): 142.8 ± 26.6 U L^−1 | Alanine Aminotransferase ([1]; 30 mg kg^−1, 46 or 54 days): 102.0 ± 32.4 U L^−1 | hepatic triglyceride content [4]: No apparent increase
Compound: COc1ccn2c(=O)c(-c3cnn(CC(F)(F)C(F)(F)F)c3)c(C(F)(F)F)nc2c1 [Compound A, 8-methoxy-3-(1-(2,2,3,3,3-pentafluoropropyl)-1H-pyrazol-4-yl)-2-(trifluoromethyl)-4H-pyrido[1,2-a]pyrimidin-4-one]
plasma liver enzyme alanine aminotransferase (ALT) ([1]; Compound A-treated DIO mice): decreased | Cholesterol ([1]; 10 mg kg^−1, 46 or 54 days): 173.0 ± 11.9 mg/dL | HDL-Cholesterol ([1]; 10 mg kg^−1, 46 or 54 days): 86.4 ± 8.0 mg/dL | Insulin ([1]; 10 mg kg^−1, 46 or 54 days): 3.7 ± 3.2 ng/mL | LDL-Cholesterol ([1]; 10 mg kg^−1, 46 or 54 days): 22.4 ± 2.3 mg/dL | Non-esterified fatty acids ([1]; 10 mg kg^−1, 46 or 54 days): 0.9 ± 0.1 mEq L^−1 | Triglycerides ([1]; 10 mg kg^−1, 46 or 54 days): 77.8 ± 13.7 mg/dL | Cholesterol ([1]; 30 mg kg^−1, 46 or 54 days): 165.3 ± 15.6 mg/dL | HDL-Cholesterol ([1]; 30 mg kg^−1, 46 or 54 days): 85.7 ± 5.5 mg/dL | Insulin ([1]; 30 mg kg^−1, 46 or 54 days): 2.2 ± 1.3 ng/mL | LDL-Cholesterol ([1]; 30 mg kg^−1, 46 or 54 days): 19.7 ± 2.5 mg/dL | Non-esterified fatty acids ([1]; 30 mg kg^−1, 46 or 54 days): 0.7 ± 0.1 mEq L^−1 | Triglycerides ([1]; 30 mg kg^−1, 46 or 54 days): 63.3 ± 9.7 mg/dL | C-reactive Protein [1, 6]: 43.6 ± 9.7 µg/mL | Glucose [1, 6]: 170.3 ± 22.3 mg/dL | Serum Amyloid A [1, 6]: 5.2 ± 1.3 µg/mL | plasma insulin decrease vs vehicle ([1]; DIO mice, 10 mg/kg daily oral): 74.9% | C-reactive Protein [1, 7]: 37.1 ± 6.5 µg/mL | Glucose [1, 7]: 168.6 ± 23.2 mg/dL | Serum Amyloid A [1, 7]: 4.8 ± 1.8 µg/mL | lower plasma triglycerides vs vehicle ([1]; DIO mice, 30 mg/kg daily oral): 41.6% | plasma insulin decrease vs vehicle ([1]; DIO mice, 30 mg/kg daily oral): 84.7% | plasma cholesterol [1, 8]: lowered; also recorded: trended lower | plasma triglycerides [1, 8]: dose-dependent decreases | body weight ([2]; 42 days, vs vehicle): significantly reduced body weight | carbon dioxide production ([2]; 42 days, vs vehicle): no differences | energy expenditure ([2]; 42 days, vs vehicle): no differences | oxygen consumption ([2]; 42 days, vs vehicle): no differences | light cycle RER ([2]; at 17-23 days and 38-42 days): decreased | activity in the dark cycle ([2]; vs vehicle-treated mice): trended to be more active | lower body weight relative to vehicle-treated mice ([3]; 10 mg/kg daily oral): 17.9% | lower body weight relative to vehicle-treated mice ([3]; 30 mg/kg daily oral): 21.1% | food intake ([3]; 10 and 30 mg/kg daily oral): without affecting food intake; also recorded: No significant differences | FADS1 activity 20:4n-6/20:3n-6 ([5]; 10 mg kg^−1, 46 or 54 days): 0.06 ± 0.01 | FADS2 activity 18:3n-6/18:2n-6 ([5]; 10 mg kg^−1, 46 or 54 days): 0.018 ± 0.002 | FADS1 activity 20:4n-6/20:3n-6 ([5]; 30 mg kg^−1, 46 or 54 days): 0.05 ± 0.01 | FADS2 activity 18:3n-6/18:2n-6 ([5]; 30 mg kg^−1, 46 or 54 days): 0.014 ± 0.003 | Adrenic acid 22:4 n-6 ([5]; 10 mg kg^−1, 46 or 54 days): 1.0 ± 0.1 µg/mL | Alpha-Linolenic acid 18:3 n-3 ([5]; 10 mg kg^−1, 46 or 54 days): 0.9 ± 0.3 µg/mL | Arachidonic acid 20:4 n-6 ([5]; 10 mg kg^−1, 46 or 54 days): 16.1 ± 3.2 µg/mL | Dihomo-gamma-Linolenic acid 20:3 n-6 ([5]; 10 mg kg^−1, 46 or 54 days): 281.3 ± 34.6 µg/mL | Docosahexaenoic acid 22:6 n-3 ([5]; 10 mg kg^−1, 46 or 54 days): 93.5 ± 11.8 µg/mL | Eicosapentaenoic acid 20:5 n-3 ([5]; 10 mg kg^−1, 46 or 54 days): 0.3 ± 0.1 µg/mL | Eicosatetraenoic acid 20:4 n-3 ([5]; 10 mg kg^−1, 46 or 54 days): 2.5 ± 0.5 µg/mL | Gamma-Linoleic acid 18:3 n-6 ([5]; 10 mg kg^−1, 46 or 54 days): 3.4 ± 0.4 µg/mL | Linoleic acid 18:2 n-6 ([5]; 10 mg kg^−1, 46 or 54 days): 198.5 ± 10.5 µg/mL | Adrenic acid 22:4 n-6 ([5]; 30 mg kg^−1, 46 or 54 days): 0.8 ± 0.1 µg/mL | Alpha-Linolenic acid 18:3 n-3 ([5]; 30 mg kg^−1, 46 or 54 days): 0.7 ± 0.2 µg/mL | Arachidonic acid 20:4 n-6 ([5]; 30 mg kg^−1, 46 or 54 days): 12.5 ± 3.0 µg/mL | Dihomo-gamma-Linolenic acid 20:3 n-6 ([5]; 30 mg kg^−1, 46 or 54 days): 242.3 ± 23.4 µg/mL | Docosahexaenoic acid 22:6 n-3 ([5]; 30 mg kg^−1, 46 or 54 days): 78.2 ± 11.6 µg/mL | Eicosapentaenoic acid 20:5 n-3 ([5]; 30 mg kg^−1, 46 or 54 days): 0.3 ± 0.1 µg/mL | Eicosatetraenoic acid 20:4 n-3 ([5]; 30 mg kg^−1, 46 or 54 days): 1.9 ± 0.4 µg/mL | Gamma-Linoleic acid 18:3 n-6 ([5]; 30 mg kg^−1, 46 or 54 days): 2.8 ± 0.5 µg/mL | Linoleic acid 18:2 n-6 ([5]; 30 mg kg^−1, 46 or 54 days): 196.5 ± 24.6 µg/mL | Adrenic acid AdA 22:4 n-6 ([5]; 10 mg/kg): 1.0 ± 0.1 µg/mL | Arachidonic acid AA 20:4 n-6 ([5]; 10 mg/kg): 16.1 ± 3.2 µg/mL | Decosahexaenoic acid DHA 22:6 n-3 ([5]; 10 mg/kg): 93.5 ± 11.8 µg/mL | Dihomo-γ-Linolenic acid DGLA 20:3 n-6 ([5]; 10 mg/kg): 281.3 ± 34.6 µg/mL | Eicosapentaenoic acid EPA 20:5 n-3 ([5]; 10 mg/kg): 0.3 ± 0.1 µg/mL | Eicosatetraenoic acid ETA 20:4 n-3 ([5]; 10 mg/kg): 2.5 ± 0.5 µg/mL | Linoleic acid LA 18:2 n-6 ([5]; 10 mg/kg): 198.5 ± 10.5 µg/mL | α-Linolenic acid ALA 18:3 n-3 ([5]; 10 mg/kg): 0.9 ± 0.3 µg/mL | γ-Linoleic acid GLA 18:3 n-6 ([5]; 10 mg/kg): 3.4 ± 0.4 µg/mL | Adrenic acid AdA 22:4 n-6 ([5]; 30 mg/kg): 0.8 ± 0.1 µg/mL | Arachidonic acid AA 20:4 n-6 ([5]; 30 mg/kg): 12.5 ± 3.0 µg/mL | Decosahexaenoic acid DHA 22:6 n-3 ([5]; 30 mg/kg): 78.2 ± 11.6 µg/mL | Dihomo-γ-Linolenic acid DGLA 20:3 n-6 ([5]; 30 mg/kg): 242.3 ± 23.4 µg/mL | Eicosapentaenoic acid EPA 20:5 n-3 ([5]; 30 mg/kg): 0.3 ± 0.1 µg/mL | Eicosatetraenoic acid ETA 20:4 n-3 ([5]; 30 mg/kg): 1.9 ± 0.4 µg/mL | Linoleic acid LA 18:2 n-6 ([5]; 30 mg/kg): 196.5 ± 24.6 µg/mL | α-Linolenic acid ALA 18:3 n-3 ([5]; 30 mg/kg): 0.7 ± 0.2 µg/mL | γ-Linoleic acid GLA 18:3 n-6 ([5]; 30 mg/kg): 2.8 ± 0.5 µg/mL | FADS1 activity AA/DGLA 20:4n-6/20:3n-6 ([5]; 10 mg/kg): 0.06 ± 0.01 | FADS2 activity GLA/LA 18:3n-6/18:2n-6 ([5]; 10 mg/kg): 0.018 ± 0.002 | FADS1 activity AA/DGLA 20:4n-6/20:3n-6 ([5]; 30 mg/kg): 0.05 ± 0.01 | FADS2 activity GLA/LA 18:3n-6/18:2n-6 ([5]; 30 mg/kg): 0.014 ± 0.003 | decrease of AA/DHA ratio ([5]; plasma, Compound A-treated mice (Table 6.1)): five-fold
